Key:
[1] = test system: patients with MWS; settings: cited from earlier work
[2] = test system: LPS-stimulated IL-1β release from PBMCs of FCAS patients; assay: LPS-stimulated IL-1β release from PBMCs of patients with FCAS; format: cell-based, human
From the text: (§1) Inhibition by Compound 7 of LPS-Stimulated IL-1β and IL-18 Release from PBMCs of Patients with FCAS Compared with Healthy Controls.
(§2) FCAS patients from 3 families were studied along with healthy controls. The FCAS patients expressed 3 different CIAS1 gene mutations. […] (Neven B, Callebaut I, Prieur A M, Feldmann J, Bodemer C, Lepore L, Derfalvi B, Benjaponpitak S, Vesely R, Sauvain M J, Oertle S, Allen R, Morgan G, Borkhardt A, Hill C, Gardner-Medwin J. Fischer A, de Saint Basile G. Molecular basis of the spectral expression of CIAS1 mutations associated with phagocytic cell-mediated autoinflammatory disorders CINCA/NOMID, MWS, and FCU. Blood. 2004; 103(7): 2809-15).
(§3) Whole blood samples were collected from patients with FCAS and from healthy volunteer controls and cultured in vitro. The production of IL-1β was evaluated under normal, unstimulated conditions and in the presence of lipopolysaccharide at a range of concentrations from 10-10,000 ng/mL. Compound 7 was added to the cultures at concentrations of 30-30,000 nM to observe its ability to inhibit the production of IL-1β and IL-18 by cells from patients with FCAS or healthy volunteers. FIG. 1 illustrates the results of these experiments.
(§4) More specifically, in FIG. 1A, PBMCs from FCAS patients and normal controls were incubated with 10 ng/ml LPS in the presence of increasing concentrations of compound 7 (0.03-30 μM) for 24 hours. IL-1β in cell culture media was measured by ELISA and the results for each subject were normalized to the level of IL-1β release in the absence of compound 7. Results were reported in mean±SEM, for 3 FCAS patients and 5 control patients. LPS-stimulated IL-1β was inhibited by compound 7 with potency very similar to that of PBMCs from normal subjects (IC50 value˜1 μM).
FIG. 1B illustrates the release of IL-1β by PBMCs from FCAS patients or control subjects after exposure to LPS for 24 hours in the absence or presence of 10 μM compound 7. Results were reported in mean±SEM for 7 FCAS patients and 5 control patients. […]

[3] = test system: LPS-stimulated IL-1β release from PBMCs from normal subjects; assay: LPS-stimulated IL-1β release from PBMCs of healthy controls; format: cell-based; settings: Homo sapiens, PBMC, 10 ng/ml LPS, 24 hours, compound 0.03-30 μM, ELISA, FIG. 1A, read-out: IC50 for inhibition of LPS-stimulated IL-1β release
Description: as §1, §3, §4

[4] = test system: LPS-stimulated IL-18 release from PBMCs of FCAS patients; assay: LPS-stimulated IL-18 release from PBMCs of patients with FCAS; format: cell-based, human
From the text: as §1, §2, §3
FIG. 1C illustrates the release of IL-18 by PBMCs from FCAS patients or control subjects after 24 hrs exposure to LPS in the absence or presence of 10 μM compound 7. […]

[5] = test system: LPS-stimulated IL-1β release from PBMCs from MWS patients; assay: LPS-stimulated IL-1β release from PBMCs from MWS patients; format: cell-based, human; settings: PBMCs from 4 MWS patients, 10 ng/ml LPS, compound 0.03-10 μM, 24 hour, ELISA, FIG. 2
Description: Inhibition by Compound 7 of LPS-Stimulated IL-1β Release from PBMCs from 4 MWS Patients Incubated with 10 ng/ml LPS in the Presence of Increasing Concentrations of Compound 7 (0.03-10 μM) for 24 Hour.
as §3, with “with MWS” for “with FCAS and from healthy volunteer controls”, “of 30-10,000” for “of 30-30,000”, “IL-1β” for “IL-1β and IL-18”, “with MWS” for “with FCAS”, “FIG. 2” for “FIG. 1”
More specifically, in FIG. 2, IL-1β in cell culture media was measured by ELISA and the results for each subject were normalized to the level of IL-1β release in the absence of compound 7. Results were reported individually for each of the 4 MWS patients.

[6] = test system: MWS patients; assay: Open-label clinical trial: clinical response of 4 MWS patients to compound 7; format: in vivo, human
Description: Clinical Response of 4 MWS Patients to 900 mg Compound 7 Administered Orally Three Times Daily for 14 Days.
Four patients with MWS were enrolled into an open-label clinical trial to receive treatment with compound 7.
Compound 7 was administered orally at a dose of 900 mg 3 times daily for 14 days.
Specifically, in FIG. 3A, serum interleukin-18 (IL-18) was measured before (day −9 and day 0 (first point)), during (day 0 (second point), day 7 and day 14, (first point)) and after (day 14 (second point) and day 21) treatment with compound 7. On average, serum IL-18 levels were reduced by 55% at day 14. Data were reported in mean±SEM from 4 patients. Baseline levels of serum IL-18 were 170-370 pg /mL and were only slightly elevated relative to those typically observed in healthy control subjects.
In FIG. 3B, Serum amyloid A (SAA) and C-reactive protein (CRP) were measured before, during and after treatment with compound 7, and the amounts of SAA and CRP were reduced on average by 75% and 65%, respectively. Baseline levels of SAA were 150-650 mg/L and of CRP were 20-90 mg/L, both considerably elevated relative to healthy control subjects.
FIG. 3C illustrates that the self-reported patient total symptom scores were reduced on average by 60% during treatment. Individual symptoms (rash, fever/chills, arthralgia/myalgia, eye discomfort, fatigue) were rated daily by patients to be absent (O), minimal (1), mild (2), moderate (3) or severe (4) and the total score was calculated as the sum of individual symptom scores (range 0-20). Patients were experiencing mild-moderate symptoms at the beginning of treatment (scores 10-15), which were reduced to a minimal level (scores about 5) during treatment with compound 7.

[7] = 900 mg orally three times daily for 14 days, MWS patients, FIG. 3B

Compound: anakinra: recombinant human interleukin-1 receptor antagonist (rhuIL-1Ra, anakinra)
- Clinical inflammatory symptoms in patients with MWS ([1]; daily injection): dramatic, rapid and sustained reduction
- Serum amyloid A in patients with MWS ([1]; daily injection): reduction of serum amyloid A
- Urinary excretion of amyloid in patients with MWS ([1]; daily injection): reduction
- Effectiveness in treating Muckle-Wells syndrome, Familial Cold Autoinflammatory Syndrome, Hyper-IgD syndrome and systemic onset Juvenile idiopathic Arthritis ([1]; human, in vivo): effective

Compound: CCO[C@@H]1OC(=O)C[C@@H]1NC(=O)[C@@H]1CCCN1C(=O)[C@@H](NC(=O)c1ccc(N)c(Cl)c1)C(C)(C)C [Compound 7]
- LPS-stimulated IL-1β release in presence of compound ([2]; 10 μM compound, LPS 24 hours, PBMCs from 7 FCAS patients vs 5 controls, FIG. 1B): inhibited
- IC50 ([2]; Homo sapiens, PBMC, PBMCs from FCAS patients, 10 ng/ml LPS, 24 hours, compound 0.03-30 μM, ELISA, FIG. 1A, read-out: IC50 for inhibition of LPS-stimulated IL-1β release): ~1000 nM
- Potency of blocking IL-1β secretion, FCAS versus control subjects ([2]; LPS-stimulated cells, FIG. 1): equal potency
- IC50 [3]: ~1000 nM
- LPS-stimulated IL-18 release in presence of compound ([4]; 10 μM compound, LPS 24 hrs, PBMCs from 3 FCAS patients vs 3 controls, FIG. 1C): inhibited
- Potency of blocking IL-18 secretion, FCAS versus control subjects ([4]; LPS-stimulated cells, FIG. 1): equal potency
- Inhibition of LPS-stimulated IL-1β release, potency versus normal subjects [5]: potency similar to that of PBMCs from normal subjects
- Reduction of C-reactive protein (CRP) (average) [6, 7]: 65%
- Reduction of serum amyloid A (SAA) (average) [6, 7]: 75%
- Reduction of serum interleukin-18 (average) ([6]; 900 mg orally three times daily, at day 14, 4 MWS patients, FIG. 3A): 55%
- Reduction of self-reported patient total symptom scores (average) ([6]; 900 mg orally three times daily, during treatment, MWS patients, FIG. 3C): 60%
- Tolerability ([6]; four MWS patients, 14-day treatment period, 900 mg 3 times daily orally): well tolerated
- Total symptom score during treatment ([6]; sum of 5 symptom scores, range 0-20, scores 10-15 at beginning of treatment): about 5
